Measurements: patent US6495571B1, “Pyridine compounds, use and preparation thereof” (Southern Research Institute, priority 1999, dated 2002)
Where two headings read alike, the source gives them in different places.

Experiments:
[1] = tested on: P388/CPA (cyclophosphamide-resistant) leukemia; type: in vivo, CD2F1 female mice; conditions: for 50-DAY SURV./TOTAL / % ILS / APPROX. NET LOG10 CHANGE IN TUMOR BURDEN AT END OF Rx: Q1D × 5 (1)
[2] = Cytotoxicity in vitro; type: cell-based
[3] = tested on: P388/0 murine leukemia
[4] = tested on: P388/L-PAM (melphalan-resistant) leukemia; conditions: for activity in this tumor model (in words): mouse, in vivo
[5] = rats; cited from earlier work
[6] = dogs; cited from earlier work
[7] = one hour infusion for 5 consecutive days, patients; cited from earlier work
[8] = 14C-penclomedine, tumor-bearing rats; cited from earlier work
[9] = tested on: human MX-1 mammary tumor (ic, 10^6 cells); assay: In vivo antitumor activity, i.c.-implanted MX-1 xenograft; conditions: for Median % ILS (dying mice only): Days 1-5
[10] = tested on: P388/BCNU (carmustine-resistant) leukemia; assay: Antitumor activity against IP-implanted P388/BCNU leukemia
[11] = tested on: human MX-1 mammary tumor (sc, 30-40 mg fragments); assay: In vivo antitumor activity, s.c.-implanted MX-1 xenograft; design: species or system Athymic mice (Ncr-nu)
[12] = tested on: ZR-75-1 human mammary tumor; assay: In vivo antitumor activity, sc ZR-75-1 xenograft; design: species or system Athymic mice (Ncr-nu)
[13] = tested on: MCF7 human mammary tumor; assay: In vivo antitumor activity, sc MCF7 xenograft; design: species or system Athymic mice (Ncr-nu)
[14] = tested on: UISO-BCA-1 human mammary tumor; assay: In vivo antitumor activity, sc UISO-BCA-1 xenograft; design: species or system Athymic mice (Ncr-nu); conditions: IP 90 mg/kg/dose, Days 16-20
[15] = tested on: HT29 human colon tumor; assay: In vivo antitumor activity, sc HT29 xenograft; design: species or system Athymic mice (Ncr-nu)
[16] = tested on: NCI-H82 small cell lung tumor; assay: In vivo antitumor activity, sc NCI-H82 xenograft; design: species or system Athymic mice (Ncr-nu)
[17] = tested on: NCI-H460 nonsmall cell lung tumor; assay: In vivo antitumor activity, sc NCI-H460 xenograft; design: species or system Athymic mice (Ncr-nu); conditions: IP 90 mg/kg/dose, Days 6-10
[18] = tested on: U251 human CNS tumor; assay: In vivo antitumor activity, sc U251 xenograft; design: species or system Athymic mice (Ncr-nu)
[19] = tested on: SF-295 CNS tumor; assay: In vivo antitumor activity, sc SF-295 xenograft; design: species or system Athymic mice (Ncr-nu); conditions: IP 90 mg/kg/dose, Days 9-13
[20] = tested on: CAKI-1 human renal tumor; assay: In vivo antitumor activity, sc CAKI-1 xenograft; design: species or system Athymic mice (Ncr-nu)
[21] = tested on: OVCAR-5 ovarian tumor; assay: In vivo antitumor activity, sc OVCAR-5 xenograft; design: species or system Athymic mice (Ncr-nu); conditions: IP 90 mg/kg/dose, Days 12-16
[22] = tested on: SK-MEL-28 melanoma; assay: In vivo antitumor activity, sc SK-MEL-28 xenograft; design: species or system Athymic mice (Ncr-nu); conditions: IP 90 mg/kg/dose, Days 8-12
[23] = IP 60.0 mg/kg/dose, Q1D × 5 (1)
[24] = IP 90.0 mg/kg/dose, Q1D × 5 (1)
[25] = IP 135.0 mg/kg/dose, Q1D × 5 (1)
[26] = optimal doses (LD10 or less), schedule QD1-5, administered LP.
[27] = oral (gavage) 135 mg/kg/dose, Days 13-17
[28] = highest nontoxic doses evaluated, versus DM-PEN
[29] = highest nontoxic doses evaluated, versus PEN

COc1nc(C(Cl)(Cl)Cl)c(Cl)c(OC)c1Cl [PEN, 3,5-dichloro-2,4-dimethoxy-6-(trichloromethyl)pyridine]
50-DAY SURV./TOTAL ([1]; IP 60.0 mg/kg/dose): 0/6 | % ILS ([1]; IP 60.0 mg/kg/dose): −5% | 50-DAY SURV./TOTAL ([1]; IP 90.0 mg/kg/dose): 0/6 | % ILS ([1]; IP 90.0 mg/kg/dose): −5% | 50-DAY SURV./TOTAL ([1]; IP 135.0 mg/kg/dose): 0/6 | % ILS ([1]; IP 135.0 mg/kg/dose): −5% | activity as cytotoxic agents in vitro [2]: inactive | 50-DAY SURV./TOTAL [3, 23]: 0/6 | 50-DAY SURV./TOTAL [3, 24]: 0/6 | APPROX. NET LOG10 CHANGE IN TUMOR BURDEN AT END OF Rx [3, 24]: −0.8 | 50-DAY SURV./TOTAL [3, 25]: 0/6 | APPROX. NET LOG10 CHANGE IN TUMOR BURDEN AT END OF Rx [3, 25]: −4.8 | 50-DAY SURV./TOTAL [4, 23]: 0/6 | 50-DAY SURV./TOTAL [4, 24]: 0/6 | 50-DAY SURV./TOTAL [4, 25]: 0/6 | activity in this tumor model (in words) [4]: none of the three showed significant activity | neurotoxicity (muscle tremors, incoordination, convulsions, reduced activity) [5]: Dose related neurotoxicity | plasma penclomedine levels associated with severe emesis and seizures [6]: above 30 μM | neurotoxicity (dysmetria, ataxia, vertigo) [7]: principal dose limiting toxicity | radioactive species in the brain [8]: predominant radioactive species in the brain | cures ([9]; Table 2 conditions): not | Median % ILS (based on dying mice only) [9, 26]: 88% | Survivors [9, 26]: 0/5 | 50-DAY SURV./TOTAL [10, 23]: 0/6 | % ILS [10, 23]: −6% | 50-DAY SURV./TOTAL [10, 24]: 0/6 | % ILS [10, 24]: 0% | MEDIAN DAY OF DEATH [10, 24]: 9.0 | 50-DAY SURV./TOTAL [10, 25]: 0/6 | % ILS [10, 25]: +27%

COc1nc(C(Cl)(Cl)Cl)c(Cl)c(OC(C)=O)c1Cl [DM-A-PEN]
T-C ([11]; IP 60 mg/kg/dose, Days 14-18): >38.3 days | Tumor-Free-Surv/Total ([11]; IP 60 mg/kg/dose, Days 14-18): 4/5 | T-C ([11]; IP 60 mg/kg/dose, Days 15-19): >37.2 days | Tumor-Free-Surv/Total ([11]; IP 60 mg/kg/dose, Days 15-19): 3/5 | T-C ([11]; IP 90 mg/kg/dose, Days 12-16): >41.0 days | Tumor-Free-Surv/Total ([11]; IP 90 mg/kg/dose, Days 12-16): 5/5 | IP dosage marked (LD50) ([11]; IP, Days 15-19, sc MX-1 bearing mice): 60 (LD50) mg/kg/dose | T-C [11, 27]: >38.5 days | Tumor-Free-Surv/Total [11, 27]: 5/5 | Tumor-Free-Surv/Total ([12]; IP 60 mg/kg/dose, Days 10-14): 0/5 | Tumor-Free-Surv/Total ([12]; IP 90 mg/kg/dose, Days 8-12): 0/5 | activity (in words) ([12]; s.c.-implanted): moderate to modest activity | T-C ([13]; IP 60 mg/kg/dose, Days 14-18): 7.1 days | Tumor-Free-Surv/Total ([13]; IP 60 mg/kg/dose, Days 14-18): 0/5 | activity (in words) ([13]; s.c.-implanted): moderate to modest activity | T-C [14]: -2.4 days | Tumor-Free-Surv/Total [14]: 0/5 | T-C ([15]; IP 90 mg/kg/dose, Days 14-18): 5.8 days | Tumor-Free-Surv/Total ([15]; IP 90 mg/kg/dose, Days 14-18): 0/5 | activity (in words) ([15]; s.c.-implanted): moderate to modest activity | T-C ([16]; IP 60 mg/kg/dose, Days 13-17): 7.2 days | Tumor-Free-Surv/Total ([16]; IP 60 mg/kg/dose, Days 13-17): 0/5 | activity (in words) ([16]; s.c.-implanted): moderate to modest activity | T-C [17]: -0.6 days | Tumor-Free-Surv/Total [17]: 0/5 | Tumor-Free-Surv/Total ([18]; IP 90 mg/kg/dose, Days 19-23): 0/5 | activity (in words) ([18]; s.c.-implanted): moderate to modest activity | T-C [19]: 0.7 days | Tumor-Free-Surv/Total [19]: 0/5 | T-C ([20]; IP 90 mg/kg/dose, Days 19-23): 8.4 days | Tumor-Free-Surv/Total ([20]; IP 90 mg/kg/dose, Days 19-23): 0/5 | activity (in words) ([20]; s.c.-implanted): moderate to modest activity | T-C [21]: 4.0 days | Tumor-Free-Surv/Total [21]: 0/5 | T-C [22]: 0.7 days | Tumor-Free-Surv/Total [22]: 0/5 | 50-DAY SURV./TOTAL ([1]; IP 60.0 mg/kg/dose): 0/6 | % ILS ([1]; IP 60.0 mg/kg/dose): +54% | APPROX. NET LOG10 CHANGE IN TUMOR BURDEN AT END OF Rx ([1]; IP 60.0 mg/kg/dose): −1.1 | 50-DAY SURV./TOTAL ([1]; IP 90.0 mg/kg/dose): 0/6 | % ILS ([1]; IP 90.0 mg/kg/dose): +86% | APPROX. NET LOG10 CHANGE IN TUMOR BURDEN AT END OF Rx ([1]; IP 90.0 mg/kg/dose): −3.1 | 50-DAY SURV./TOTAL ([1]; IP 135.0 mg/kg/dose): 0/6 | APPROX. NET LOG10 CHANGE IN TUMOR BURDEN AT END OF Rx ([1]; IP 135.0 mg/kg/dose): −5.7 | more active than DM-PEN by log cell kill [1, 28]: 4.6 log cell kill | more active than PEN by log cell kill [1, 29]: 7.4 log cell kill | 50-DAY SURV./TOTAL [3, 23]: 0/6 | % ILS [3, 23]: +72% | APPROX. NET LOG10 CHANGE IN TUMOR BURDEN AT END OF Rx [3, 23]: −3.1 | 50-DAY SURV./TOTAL [3, 24]: 0/6 | % ILS [3, 24]: +95% | APPROX. NET LOG10 CHANGE IN TUMOR BURDEN AT END OF Rx [3, 24]: −5.0 | 50-DAY SURV./TOTAL [3, 25]: 0/6 | % ILS [3, 25]: +150% | APPROX. NET LOG10 CHANGE IN TUMOR BURDEN AT END OF Rx [3, 25]: ca −6.8 | Lethality of the dosage (LD mark beside % ILS) [3, 25]: LD33 | more active than DM-PEN by log cell kill [3, 28]: 1.9 log cell kill | more active than PEN by log cell kill [3, 29]: 0.4 log cell kill | 50-DAY SURV./TOTAL [4, 23]: 0/6 | % ILS [4, 23]: +14% | APPROX. NET LOG10 CHANGE IN TUMOR BURDEN AT END OF Rx [4, 23]: +1.2 | 50-DAY SURV./TOTAL [4, 24]: 0/6 | % ILS [4, 24]: +14% | APPROX. NET LOG10 CHANGE IN TUMOR BURDEN AT END OF Rx [4, 24]: +1.2 | 50-DAY SURV./TOTAL [4, 25]: 0/6 | % ILS [4, 25]: +35% | APPROX. NET LOG10 CHANGE IN TUMOR BURDEN AT END OF Rx [4, 25]: −0.8 | Lethality of the dosage (LD mark beside % ILS) [4, 25]: LD17 | MEDIAN DAY OF DEATH [4, 25]: 19.8 | more active than PEN or DM-PEN by log cell kill ([4]; highest nontoxic doses evaluated, versus PEN or DM-PEN): 0.2-0.3 log cell kill | activity in this tumor model (in words) [4]: none of the three showed significant activity | Median % ILS (dying mice only) ([9]; IP 60 mg/kg/dose): +60% | Median % ILS (dying mice only) ([9]; oral (gavage) 135 mg/kg/dose): +88% | 50-DAY SURV./TOTAL [10, 23]: 1/6 | % ILS [10, 23]: +44% | APPROX. NET LOG10 CHANGE IN TUMOR BURDEN AT END OF Rx [10, 23]: 0 | MEDIAN DAY OF DEATH [10, 23]: 13.0 | 50-DAY SURV./TOTAL [10, 24]: 0/6 | % ILS [10, 24]: +77% | APPROX. NET LOG10 CHANGE IN TUMOR BURDEN AT END OF Rx [10, 24]: −2.3 | 50-DAY SURV./TOTAL [10, 25]: 0/6 | APPROX. NET LOG10 CHANGE IN TUMOR BURDEN AT END OF Rx [10, 25]: −4.1 | Lethality of the dosage (LD mark beside % ILS) [10, 25]: LD17 | more active than DM-PEN by log cell kill [10, 28]: 1.5 log cell kill | more active than PEN by log cell kill [10, 29]: 3.5 log cell kill
